Consider 13 molecules from ChEMBL document CHEMBL1125940 (Bioorg Med Chem Lett, 1991).

Positions of bridges follow the written chain, without caps; N, C: chain ends. Non-standard residues stand in square brackets, D forms with d. Residues, ends and D or L forms follow the SMILES beside them. Nle = CCCC[C@H](N)C(=O)O

The target of one experiment is T1, Endothelin-1 receptor (Rattus norvegicus, UniProt P26684).
T1 sequence (P26684 whole entry): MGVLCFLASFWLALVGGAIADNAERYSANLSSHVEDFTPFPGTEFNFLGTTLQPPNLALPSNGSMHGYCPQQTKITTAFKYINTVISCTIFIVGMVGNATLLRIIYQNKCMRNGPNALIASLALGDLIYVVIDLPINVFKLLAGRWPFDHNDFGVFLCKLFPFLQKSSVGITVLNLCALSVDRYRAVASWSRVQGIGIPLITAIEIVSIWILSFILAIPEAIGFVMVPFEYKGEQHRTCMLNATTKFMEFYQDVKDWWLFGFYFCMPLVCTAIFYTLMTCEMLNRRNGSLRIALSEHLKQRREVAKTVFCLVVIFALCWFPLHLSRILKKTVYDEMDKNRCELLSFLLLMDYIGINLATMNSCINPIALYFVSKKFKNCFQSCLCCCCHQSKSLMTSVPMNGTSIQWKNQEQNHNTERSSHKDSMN
As to the kind of experiment: Binding affinity towards Endothelin A receptor in A10 rat thoracic aorta smooth muscle cells using [125I]ET1 as radioligand.
By Kd is commonly meant a measure of binding affinity in units of concentration. Lower therefore signals a tighter complex. In the case of `CC[C@H](C)[C@H](NC(=O)[C@H](CC(=O)O)NC(=O)[C@H](CC(C)C)NC(=O)[C@H](Cc1cnc[nH]1)NC(=O)[C@@H]1CSSC[C@H](N)C(=O)N[C@@H](CO)C(=O)N[C@H]2CSSC[C@H](NC(=O)[C@H](CCC(=O)O)NC(=O)[C@H](CCCCN)NC(=O)[C@H](CC(=O)O)NC(=O)[C@H](CCSC)NC(=O)[C@H](CC(C)C)NC(=O)[C@H](CO)NC(=O)[C@H](CO)NC2=O)C(=O)N[C@@H](C(C)C)C(=O)N[C@@H](Cc2ccc(O)cc2)C(=O)N[C@@H](Cc2ccccc2)C(=O)N1)C(=O)N[C@@H](C)C(=O)N[C@@H](Cc1c[nH]c2ccccc12)C(=O)O` (H-CSCSSLMDKECVYFCHLDIAW-OH; disulfide 1-15, 3-11), the equilibrium dissociation constant (Kd) was found to be 2.11 nM.

Consider `CC[C@H](C)[C@H](NC(=O)[C@H](CC(=O)O)NC(=O)[C@H](CC(C)C)NC(=O)[C@H](Cc1c[nH]cn1)NC(=O)[C@@H]1CSSC[C@H](N)C(=O)N[C@@H](CO)C(=O)N[C@H]2CSSC[C@H](NC(=O)[C@H](CCC(=O)O)NC(=O)[C@H](CCCCN)NC(=O)[C@H](CC(=O)O)NC(=O)[C@H](CCSC)NC(=O)[C@H](CC(C)C)NC(=O)[C@H](CO)NC(=O)[C@H](CO)NC2=O)C(=O)N[C@@H](C(C)C)C(=O)N[C@@H](Cc2ccc(O)cc2)C(=O)N[C@@H](C)C(=O)N1)C(=O)N[C@H](C(=O)N[C@@H](Cc1c[nH]c2ccccc12)C(=O)O)[C@@H](C)CC` (H-CSCSSLMDKECVYACHLDIIW-OH; disulfide 1-15, 3-11), for which binding was characterised by a dissociation constant (Kd) of 646 nM.

`CC[C@H](C)[C@H](NC(=O)[C@H](CC(=O)O)NC(=O)[C@H](CC(C)C)NC(=O)[C@H](Cc1cnc[nH]1)NC(=O)[C@@H]1CSSC[C@H](N)C(=O)N[C@@H](CO)C(=O)N[C@H]2CSSC[C@H](NC(=O)[C@H](C)NC(=O)[C@H](CCCCN)NC(=O)[C@H](CC(=O)O)NC(=O)[C@H](CCSC)NC(=O)[C@H](CC(C)C)NC(=O)[C@H](CO)NC(=O)[C@H](CO)NC2=O)C(=O)N[C@@H](C(C)C)C(=O)N[C@@H](Cc2ccc(O)cc2)C(=O)N[C@@H](Cc2ccccc2)C(=O)N1)C(=O)N[C@H](C(=O)N[C@@H](Cc1c[nH]c2ccccc12)C(=O)O)[C@@H](C)CC` (H-CSCSSLMDKACVYFCHLDIIW-OH; disulfide 1-15, 3-11) had a dissociation constant (Kd) of 188 nM.

`CSCC[C@@H]1NC(=O)[C@H](CC(C)C)NC(=O)[C@H](CO)NC(=O)[C@H](CO)NC(=O)[C@@H]2CSSC[C@H](NC(=O)[C@H](CCC(=O)O)NC(=O)[C@H](CCCCN)NC(=O)[C@H](CC(=O)O)NC1=O)C(=O)N[C@@H](C(C)C)C(=O)N[C@@H](Cc1ccc(O)cc1)C(=O)N[C@@H](Cc1ccccc1)C(=O)N[C@H](C(=O)N[C@@H](Cc1cnc[nH]1)C(=O)N[C@@H](CC(C)C)C(=O)N[C@@H](CC(=O)O)C(=O)N[C@@H](C)C(=O)N[C@@H](C)C(=O)N[C@@H](Cc1c[nH]c3ccccc13)C(=O)O)CSSC[C@H](N)C(=O)N[C@@H](CO)C(=O)N2` (H-CSCSSLMDKECVYFCHLDAAW-OH; disulfide 1-15, 3-11): the Kd is 929 nM.

As for `CC[C@H](C)[C@H](NC(=O)[C@H](CC(=O)O)NC(=O)[C@H](CC(C)C)NC(=O)[C@H](Cc1c[nH]cn1)NC(=O)[C@@H]1CSSC[C@H](N)C(=O)N[C@@H](CO)C(=O)N[C@H]2CSSC[C@H](NC(=O)[C@H](CCC(=O)O)NC(=O)[C@H](CCCCN)NC(=O)[C@H](C)NC(=O)[C@H](CCSC)NC(=O)[C@H](CC(C)C)NC(=O)[C@H](CO)NC(=O)[C@H](CO)NC2=O)C(=O)N[C@@H](C(C)C)C(=O)N[C@@H](Cc2ccc(O)cc2)C(=O)N[C@@H](Cc2ccccc2)C(=O)N1)C(=O)N[C@H](C(=O)N[C@@H](Cc1c[nH]c2ccccc12)C(=O)O)[C@@H](C)CC` (H-CSCSSLMAKECVYFCHLDIIW-OH; disulfide 1-15, 3-11), the affinity, expressed as Kd, was 3070 nM.

`CC[C@H](C)[C@H](NC(=O)[C@H](CC(=O)O)NC(=O)[C@H](CC(C)C)NC(=O)[C@H](Cc1c[nH]cn1)NC(=O)[C@@H]1CSSC[C@H](N)C(=O)N[C@@H](CO)C(=O)N[C@H]2CSSC[C@H](NC(=O)[C@H](CCC(=O)O)NC(=O)[C@H](CCCCN)NC(=O)[C@H](CC(=O)O)NC(=O)[C@H](CCSC)NC(=O)[C@H](CC(C)C)NC(=O)[C@H](CO)NC(=O)[C@H](CO)NC2=O)C(=O)N[C@@H](C(C)C)C(=O)N[C@@H](Cc2ccc(O)cc2)C(=O)N[C@@H](Cc2ccccc2)C(=O)N1)C(=O)N[C@H](C(=O)N[C@@H](C)C(=O)O)[C@@H](C)CC` (H-CSCSSLMDKECVYFCHLDIIA-OH; disulfide 1-15, 3-11): the dissociation constant (Kd) was over 20000 nM.

In the case of `CC[C@H](C)[C@H](NC(=O)[C@H](CC(=O)O)NC(=O)[C@H](CC(C)C)NC(=O)[C@H](Cc1cnc[nH]1)NC(=O)[C@@H]1CSSC[C@H](N)C(=O)N[C@@H](CO)C(=O)N[C@H]2CSSC[C@H](NC(=O)[C@H](CCC(=O)O)NC(=O)[C@H](CCCCN)NC(=O)[C@H](CC(=O)O)NC(=O)[C@H](C)NC(=O)[C@H](C)NC(=O)[C@H](C)NC(=O)[C@H](C)NC2=O)C(=O)N[C@@H](C(C)C)C(=O)N[C@@H](Cc2ccc(O)cc2)C(=O)N[C@@H](Cc2ccccc2)C(=O)N1)C(=O)N[C@H](C(=O)N[C@@H](Cc1c[nH]c2ccccc12)C(=O)O)[C@@H](C)CC` (H-CSCAAAADKECVYFCHLDIIW-OH; disulfide 1-15, 3-11), the Kd amounted to 130 nM.

The species entered for a further experiment is Oryctolagus cuniculus. The experiment is described as follows: Effective concentration required for stimulation of vascular contraction tested in vitro using carotid arteries of New Zealand white rabbits. The format is functional.
The EC50 is the concentration needed to bring the measured effect to its halfway point. Low values mean an effect from little substance, high ones a need for much substance. Take `CC[C@H](C)[C@H](NC(=O)[C@H](CC(=O)O)NC(=O)[C@H](CC(C)C)NC(=O)[C@H](Cc1c[nH]cn1)NC(=O)[C@@H]1CSSC[C@H](N)C(=O)N[C@@H](CO)C(=O)N[C@H]2CSSC[C@H](NC(=O)[C@H](CCC(=O)O)NC(=O)[C@H](CCCCN)NC(=O)[C@H](CC(=O)O)NC(=O)[C@H](CCSC)NC(=O)[C@H](CC(C)C)NC(=O)[C@H](CO)NC(=O)[C@H](CO)NC2=O)C(=O)N[C@@H](C(C)C)C(=O)N[C@@H](Cc2ccc(O)cc2)C(=O)N[C@@H](Cc2ccccc2)C(=O)N1)C(=O)N[C@H](C(=O)N[C@@H](Cc1c[nH]c2ccccc12)C(=O)O)[C@@H](C)CC` [ENDOTHELIN]: it took 0.94 nM to reach a half-maximal effect (EC50).

With `CC[C@H](C)[C@H](NC(=O)[C@H](C)NC(=O)[C@H](CC(=O)O)NC(=O)[C@H](CC(C)C)NC(=O)[C@H](Cc1c[nH]cn1)NC(=O)[C@@H]1CSSC[C@H](N)C(=O)N[C@@H](CO)C(=O)N[C@H]2CSSC[C@H](NC(=O)[C@H](CCC(=O)O)NC(=O)[C@H](CCCCN)NC(=O)[C@H](CC(=O)O)NC(=O)[C@H](CCSC)NC(=O)[C@H](CC(C)C)NC(=O)[C@H](CO)NC(=O)[C@H](CO)NC2=O)C(=O)N[C@@H](C(C)C)C(=O)N[C@@H](Cc2ccc(O)cc2)C(=O)N[C@@H](Cc2ccccc2)C(=O)N1)C(=O)N[C@@H](Cc1c[nH]c2ccccc12)C(=O)O` (H-CSCSSLMDKECVYFCHLDAIW-OH; disulfide 1-15, 3-11), the EC50 was found to be 182 nM.

Turning to `CC[C@H](C)[C@H](NC(=O)[C@H](CC(=O)O)NC(=O)[C@H](CC(C)C)NC(=O)[C@H](Cc1c[nH]cn1)NC(=O)[C@@H]1CSSC[C@H](N)C(=O)N[C@@H](C)C(=O)N[C@H]2CSSC[C@H](NC(=O)[C@H](CCC(=O)O)NC(=O)[C@H](CCCCN)NC(=O)[C@H](CC(=O)O)NC(=O)[C@H](CCSC)NC(=O)[C@H](CC(C)C)NC(=O)[C@H](CO)NC(=O)[C@H](CO)NC2=O)C(=O)N[C@@H](C(C)C)C(=O)N[C@@H](Cc2ccc(O)cc2)C(=O)N[C@@H](Cc2ccccc2)C(=O)N1)C(=O)N[C@H](C(=O)N[C@@H](Cc1c[nH]c2ccccc12)C(=O)O)[C@@H](C)CC` (H-CACSSLMDKECVYFCHLDIIW-OH; disulfide 1-15, 3-11), it took 38 nM to reach a half-maximal effect (EC50).

Turning to `CC[C@H](C)[C@H](NC(=O)[C@H](CC(=O)O)NC(=O)[C@H](CC(C)C)NC(=O)[C@H](Cc1c[nH]cn1)NC(=O)[C@@H]1CSSC[C@H](N)C(=O)N[C@@H](CO)C(=O)N[C@H]2CSSC[C@H](NC(=O)[C@H](CCC(=O)O)NC(=O)[C@H](CCCCN)NC(=O)[C@H](CC(=O)O)NC(=O)[C@H](C)NC(=O)[C@H](C)NC(=O)[C@H](C)NC(=O)[C@H](C)NC2=O)C(=O)N[C@@H](C(C)C)C(=O)N[C@@H](Cc2ccc(O)cc2)C(=O)N[C@@H](Cc2ccccc2)C(=O)N1)C(=O)N[C@H](C(=O)N[C@@H](Cc1c[nH]c2ccccc12)C(=O)O)[C@@H](C)CC` (H-CSCAAAADKECVYFCHLDIIW-OH; disulfide 1-15, 3-11), the midpoint of the response, the EC50, lay at 36 nM.

The molecule `CC[C@H](C)[C@H](NC(=O)[C@H](CC(=O)O)NC(=O)[C@H](CC(C)C)NC(=O)[C@H](Cc1c[nH]cn1)NC(=O)[C@@H]1CSSC[C@H](N)C(=O)N[C@@H](CO)C(=O)N[C@H]2CSSC[C@H](NC(=O)[C@H](CCC(=O)O)NC(=O)[C@H](CCCCN)NC(=O)[C@H](CC(=O)O)NC(=O)[C@H](CCSC)NC(=O)[C@H](CC(C)C)NC(=O)[C@H](CO)NC(=O)[C@H](CO)NC2=O)C(=O)N[C@@H](C)C(=O)N[C@@H](Cc2ccc(O)cc2)C(=O)N[C@@H](Cc2ccccc2)C(=O)N1)C(=O)N[C@H](C(=O)N[C@@H](Cc1c[nH]c2ccccc12)C(=O)O)[C@@H](C)CC` (H-CSCSSLMDKECAYFCHLDIIW-OH; disulfide 1-15, 3-11) came in with an EC50 of 130 nM.

Molecule `CCCC[C@@H]1NC(=O)[C@H](CC(C)C)NC(=O)[C@H](CO)NC(=O)[C@H](CO)NC(=O)[C@H](C)NC(=O)[C@H](CO)NC(=O)[C@@H](N)CSSC[C@@H](C(=O)N[C@@H](Cc2c[nH]cn2)C(=O)N[C@@H](CC(C)C)C(=O)N[C@@H](CC(=O)O)C(=O)N[C@H](C(=O)N[C@H](C(=O)N[C@@H](Cc2c[nH]c3ccccc23)C(=O)O)[C@@H](C)CC)[C@@H](C)CC)NC(=O)[C@H](Cc2ccccc2)NC(=O)[C@H](Cc2ccc(O)cc2)NC(=O)[C@H](C(C)C)NC(=O)[C@H](C)NC(=O)[C@H](CCC(=O)O)NC(=O)[C@H](CCCCN)NC(=O)[C@H](CC(=O)O)NC1=O` (H-CSASSL[Nle]DKEAVYFCHLDIIW-OH; disulfide 1-15) displayed an EC50 of 3.3 nM.
